Experimental data as given in US20240424053A1, “METHODS AND COMPOSITIONS FOR PROVIDING MYOCARDIAL PROTECTION AND TREATING MYOCARDIAL STRESS AND FIBROSIS” (Tufts Medical Center, Inc., priority 2021, published 2024).
Where a SMILES comes first, the peptide text is derived from it. The star is where a group is joined. Palmitoyl = CCCCCCCCCCCCCCCC(=O)*

Assays:
PAR1 [1] = target: T1, PAR1 (Homo sapiens, UniProt P25116); experiment: TRIP-PCI phase 2 study in patients with CAD/ACS undergoing cardiac catheterization; type: in vivo; settings: 9 patients with heart failure, EFs 30-53%
T1 construct: delivered intravenously in 100 patients with coronary artery disease (CAD) and acute coronary syndrome (ACS) undergoing cardiac catheterization; endogenous in cells; host or cells: patients of the TRIP-PCI trial (platelets ex vivo; whole body in vivo)
T1 sequence (P25116 22-425): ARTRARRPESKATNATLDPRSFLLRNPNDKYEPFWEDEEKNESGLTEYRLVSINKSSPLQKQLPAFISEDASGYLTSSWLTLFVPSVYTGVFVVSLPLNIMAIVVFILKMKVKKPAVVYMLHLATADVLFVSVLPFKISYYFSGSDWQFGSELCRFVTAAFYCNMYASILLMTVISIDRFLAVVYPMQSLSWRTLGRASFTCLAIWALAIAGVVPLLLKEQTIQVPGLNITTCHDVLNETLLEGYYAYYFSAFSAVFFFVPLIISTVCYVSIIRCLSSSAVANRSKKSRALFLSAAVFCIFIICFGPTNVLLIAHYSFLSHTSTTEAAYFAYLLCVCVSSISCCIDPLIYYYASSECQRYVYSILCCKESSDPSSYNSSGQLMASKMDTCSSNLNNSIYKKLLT
Description: TRIP-PCI was a multicenter, randomized, double-blind placebo-controlled phase 2 study that examined the safety, tolerability, and efficacy of PZ-128 at two dose levels (0.3 and 0.5 mg/kg, versus placebo, 1:1:1), delivered intravenously in 100 patients with coronary artery disease (CAD) and acute coronary syndrome (ACS) undergoing cardiac catheterization (Kuliopulos et al., Arterioscler. Thromb. Vasc. Biol 40(12):2990-3003, 2020). PAR1 inhibitors are intended to suppress thrombin-induced platelet activation to reduce damage during percutaneous coronary intervention (PCI) and ACS, potentially reducing the risk of myocardial infarction, stroke, and serious adverse events (Mackman et al., Nat. Rev. Drug Discov. 19(5):333-352, 2020). PZ-128 clinical trial participants received a single 2-h intravenous infusion of PZ-128 or placebo started just prior to catheterization along with standard antiplatelet therapy. […] The majority of events occurred within the first 24 h, with a nonsignificant decrease in hazard ratio (HR=0.81) of a MACE/myonecrosis event in the PZ-128 treated groups versus placebo. […]

PAR1 [2] = target: T1, PAR1; settings: subjects with coronary artery disease; cited from earlier work

CCCCCCCCCCCCCCCC(=O)N[C@@H](CCCCN)C(=O)N[C@@H](CCCCN)C(=O)N[C@@H](CO)C(=O)N[C@@H](CCCNC(=N)N)C(=O)N[C@@H](C)C(=O)N[C@@H](CC(C)C)C(=O)N[C@@H](Cc1ccccc1)C(N)=O [PZ-128, Palmitate-KKSRALF-NH2] (Palmitoyl-KKSRALF-NH2)
tolerability in heart failure patients (PAR1 [1]): tolerated well
platelet activation and hemostasis in phase 1 (PAR1 [2]): suppresses platelet activation without effects on hemostasis
